Experimental data reported in US5296367A (priority 1991, dated 1994).
*1 amine or outer side, *2 acyl side, *3 side chain or, on linkers, in order; H or OH if unused. Where a SMILES comes first, the peptide text is derived from it. CO = O=C([*:1])[*:2]

Biological target: T1, alkaline proteinase K-16 from Bacillus sp. KSM-K16 (Shouchella clausii, UniProt Q99405)
T1 construct: made in house; host or cells: Bacillus sp; KSM-K16 (own producer strain, culture)
T1 sequence (Q99405 112-380): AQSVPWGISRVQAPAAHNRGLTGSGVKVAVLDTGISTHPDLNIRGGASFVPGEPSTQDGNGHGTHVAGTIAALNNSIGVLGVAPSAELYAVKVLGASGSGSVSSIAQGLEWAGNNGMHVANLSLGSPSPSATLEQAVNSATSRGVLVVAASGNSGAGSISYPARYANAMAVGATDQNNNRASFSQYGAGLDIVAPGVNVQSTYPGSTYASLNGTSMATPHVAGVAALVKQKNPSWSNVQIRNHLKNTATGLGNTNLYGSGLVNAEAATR
Type: biochemical
Conditions: for Residual activity (%): pH 7

| Molecule | Effect of inhibitor on activity (in words) | Residual activity (%) |
| --- | --- | --- |
| CC(C)[C@H](NC(=O)[C@H](CCCNC(=N)N)NC(=O)N[C@@H](Cc1ccccc1)C(=O)O)C(=O)N[C@H](C=O)CCCNC(=N)N [Antipain] ({Phe-CO}-Arg-Val-Arg-aldehyde) | not inhibited |  |
| O=C(O)CN(CCN(CC(=O)O)CC(=O)O)CC(=O)O [EDTA, Ethylenediaminetetraacetic acid] | not inhibited |  |
| O=S(=O)(F)Cc1ccccc1 [PMSF, Phenylmethanesulfonyl fluoride] | inhibited | 1.5% |
| chymostatin | inhibited | 34% |
